Source: PMC11510433, “Exploration of the Solubility Hyperspace of Selected Active Pharmaceutical Ingredients in Choline- and Betaine-Based Deep Eutectic Solvents: Machine Learning Modeling and Experimental Validation” (Molecules, 2024)
Like-named read-outs stand apart in the source and are kept apart here. Blank lines part the entries; values can stand above or below the molecule they belong to.

Legend:
[1] = design: method as in ref 2017-Zhong-10.1021acs.jced.7b00065; settings: solvent 1-propanol, ref 2017-Zhong-10.1021acs.jced.7b00065, cited from earlier work
[2] = A:D 1:1, x*DES 1.0 (water 0.00), T 25.0 °C, ref 2024-Cysewski-10.3390molecules29102296, cited from earlier work
[3] = shake-flask solubility of sulfonamides in choline chloride- and betaine-based deep eutectic solvents (new measurements); format: physicochemical
Protocol: The solubility measurements were preceded by the determination of the calibration curves for the studied sulfonamides. Stock solutions of these compounds were prepared in methanol and subsequently diluted. The obtained series of solutions with decreasing concentrations were then measured spectrophotometrically using an A360 spectrophotometer from AOE Instruments (Shanghai, China) in the wavelength range of 200 nm to 500 nm. Their characteristic wavelengths were determined, and the corresponding absorbance values were plotted against the concentrations of the solutions. Three separate curves were prepared, and the obtained values were averaged. The calibration curves were validated in terms of their linearity, expressed by the determination coefficient R^2, as well as the limits of detection (LOD) and quantification (LOQ).
For determining the solubility of the studied sulfonamides in different eutectic compositions, a standard shake-flask procedure was applied.
The first step in this procedure involved the preparation of the deep eutectic solvents, which was performed by combining a hydrogen bond donor with a hydrogen bond acceptor. The HBA:HBD molar ratio was set to 1:2. […] The eutectics were prepared by weighing appropriate amounts of the two counterparts in glass vessels and heating them until a homogenous solution was obtained.
The samples of sulfonamides in DESs were prepared by adding an excess amount of the solute to the test tube, followed by an addition of the specific eutectic. The saturated solutions obtained in this manner were placed in an Orbital Shaker Incubator ES-20/60 from Biosan (Riga, Latvia) and heated at 25 °C, 30 °C, 35 °C, or 40 °C for 24 h with stirring at 60 rev/min. Before the measurements, the samples were filtered using a 0.22 µm pore-size PTFE syringe filter. The spectra of the filtered solutions were recorded after the dilution with methanol in the 200 nm–500 nm wavelength range with a 1 nm resolution. […] The absorbance values found at the characteristic wavelengths were used together with the linear regression equations to calculate the concentration of the considered solutes. Simultaneously, for the computation of the mole fraction solubility, the density of the samples was determined by weighing 1 mL of the sample on a RADWAG (Radom, Poland) AS 110 R2.PLUS analytical balance with 0.1 mg precision. Three separate samples were measured for each system, and the values were averaged.

[4] = design: method as in ref 2014-Delgado-10.1007s10953-014-0169-0; settings: 1-Propanol + water, ref 2014-Delgado-10.1007s10953-014-0169-0, cited from earlier work
[5] = best-performing ChCl-TEG system, 1:2, 25 °C

Structure (SMILES): Cn1c(=O)c2c(ncn2C)n(C)c1=O [caffeine]
- log(x1)exp ([1]; T 14.86 °C): -2.932
- log(x1)exp ([1]; T 24.96 °C): -2.752
- log(x1)exp ([1]; T 34.94 °C): -2.550

Structure (SMILES): CC(C)Cc1ccc(C(C)C(=O)O)cc1 (stereo not shown) [ibuprofen]
- log(x1)exp ([2]; choline chloride + DEG): -0.616
- log(x1)exp ([2]; choline chloride + P2D): -0.793
- log(x1)exp ([2]; choline chloride + TEG): -0.580

- Mole fraction solubility [3, 5]: 0.00124 mole fraction
Structure (SMILES): CCCN(CCC)S(=O)(=O)c1ccc(C(=O)O)cc1 [probenecid]

Structure (SMILES): Cc1cc(C)nc(NS(=O)(=O)c2ccc(N)cc2)n1 [sulfamethazine]
- log(x1)exp ([4]; x2* 0.0322, x3* 0.97, T 20.00 °C): -4.226
- log(x1)exp ([4]; x2* 0.0322, x3* 0.97, T 25.00 °C): -4.133
- log(x1)exp ([4]; x2* 0.0322, x3* 0.97, T 30.00 °C): -4.044

- Mole fraction solubility ([3]; DES BI-DEG, HBA:HBD 1:2, 25°C): 0.67(±0.09) mole fraction ∙10^4
- Mole fraction solubility ([3]; DES BI-DEG, HBA:HBD 1:2, 30°C): 0.70(±0.08) mole fraction ∙10^4
- Mole fraction solubility ([3]; DES BI-DEG, HBA:HBD 1:2, 35°C): 0.75(±0.06) mole fraction ∙10^4
- Mole fraction solubility ([3]; DES BI-DEG, HBA:HBD 1:2, 40°C): 0.79(±0.05) mole fraction ∙10^4
- Mole fraction solubility ([3]; DES BI-ETG, HBA:HBD 1:2, 25°C): 0.55(±0.07) mole fraction ∙10^4
- Mole fraction solubility ([3]; DES BI-ETG, HBA:HBD 1:2, 30°C): 0.58(±0.02) mole fraction ∙10^4
- Mole fraction solubility ([3]; DES BI-ETG, HBA:HBD 1:2, 35°C): 0.62(±0.06) mole fraction ∙10^4
- Mole fraction solubility ([3]; DES BI-ETG, HBA:HBD 1:2, 40°C): 0.67(±0.08) mole fraction ∙10^4
- Mole fraction solubility ([3]; DES BI-P2D, HBA:HBD 1:2, 25°C): 0.41(±0.06) mole fraction ∙10^4
- Mole fraction solubility ([3]; DES BI-P2D, HBA:HBD 1:2, 30°C): 0.46(±0.10) mole fraction ∙10^4
- Mole fraction solubility ([3]; DES BI-P2D, HBA:HBD 1:2, 35°C): 0.49(±0.08) mole fraction ∙10^4
- Mole fraction solubility ([3]; DES BI-P2D, HBA:HBD 1:2, 40°C): 0.52(±0.04) mole fraction ∙10^4
- Mole fraction solubility ([3]; DES BI-TEG, HBA:HBD 1:2, 25°C): 0.69(±0.04) mole fraction ∙10^4
- Mole fraction solubility ([3]; DES BI-TEG, HBA:HBD 1:2, 30°C): 0.72(±0.02) mole fraction ∙10^4
- Mole fraction solubility ([3]; DES BI-TEG, HBA:HBD 1:2, 35°C): 0.77(±0.09) mole fraction ∙10^4
- Mole fraction solubility ([3]; DES BI-TEG, HBA:HBD 1:2, 40°C): 0.81(±0.07) mole fraction ∙10^4
- Mole fraction solubility ([3]; DES ChCl-DEG, HBA:HBD 1:2, 25°C): 0.71(±0.09) mole fraction ∙10^4
- Mole fraction solubility ([3]; DES ChCl-DEG, HBA:HBD 1:2, 30°C): 0.75(±0.07) mole fraction ∙10^4
- Mole fraction solubility ([3]; DES ChCl-DEG, HBA:HBD 1:2, 35°C): 0.80(±0.14) mole fraction ∙10^4
- Mole fraction solubility ([3]; DES ChCl-DEG, HBA:HBD 1:2, 40°C): 0.83(±0.02) mole fraction ∙10^4
- Mole fraction solubility ([3]; DES ChCl-ETG, HBA:HBD 1:2, 25°C): 0.62(±0.09) mole fraction ∙10^4
- Mole fraction solubility ([3]; DES ChCl-ETG, HBA:HBD 1:2, 30°C): 0.65(±0.01) mole fraction ∙10^4
- Mole fraction solubility ([3]; DES ChCl-ETG, HBA:HBD 1:2, 35°C): 0.69(±0.06) mole fraction ∙10^4
- Mole fraction solubility ([3]; DES ChCl-ETG, HBA:HBD 1:2, 40°C): 0.72(±0.08) mole fraction ∙10^4
- Mole fraction solubility ([3]; DES ChCl-P2D, HBA:HBD 1:2, 25°C): 0.50(±0.08) mole fraction ∙10^4
- Mole fraction solubility ([3]; DES ChCl-P2D, HBA:HBD 1:2, 30°C): 0.53(±0.03) mole fraction ∙10^4
- Mole fraction solubility ([3]; DES ChCl-P2D, HBA:HBD 1:2, 35°C): 0.56(±0.07) mole fraction ∙10^4
- Mole fraction solubility ([3]; DES ChCl-P2D, HBA:HBD 1:2, 40°C): 0.59(±0.01) mole fraction ∙10^4
- Mole fraction solubility ([3]; DES ChCl-TEG, HBA:HBD 1:2, 25°C): 0.75(±0.05) mole fraction ∙10^4
- Mole fraction solubility ([3]; DES ChCl-TEG, HBA:HBD 1:2, 30°C): 0.78(±0.07) mole fraction ∙10^4
- Mole fraction solubility ([3]; DES ChCl-TEG, HBA:HBD 1:2, 35°C): 0.82(±0.01) mole fraction ∙10^4
- Mole fraction solubility ([3]; DES ChCl-TEG, HBA:HBD 1:2, 40°C): 0.86(±0.02) mole fraction ∙10^4
- Mole fraction solubility [3, 5]: 0.000075 mole fraction
Structure (SMILES): O=C(O)c1cc(/N=N/c2ccc(S(=O)(=O)Nc3ccccn3)cc2)ccc1O [sulfasalazine]
